Laboratory results published in paper PMC12211128, “Safety, tolerability, pharmacokinetic and pharmacodynamic effects of the muscarinic M1 positive allosteric modulator VU0467319 for Alzheimer’s disease: a single ascending-dose study in healthy participants” (Alzheimer's Research & Therapy, 2025).
Marks after values point to notes of the source that are not given here.

Tested on: healthy participants
Assay: 12-lead ECG / QTcF and concentration/QT analysis
Type: in vivo, human
Details: for QTcF: mean (SD)
Protocol: Safety and tolerability were assessed throughout the study via treatment emergent adverse event (TEAE) monitoring, vital signs (blood pressure, pulse rate, respiration rate, oral temperature), physical examinations, 12-lead ECGs, and clinical laboratory parameters including complete blood count (CBC), coagulation, hematology, clinical chemistry assessments, and urinalysis. Safety laboratory tests were drawn at pre-dose and at 5, 24, 36 and 144-hours post-dose for 60–400 mg Cohorts; and at 24, 48, 72 and 144-hours post-dose for the 600 mg and Food Effect Cohort. ECG assessments were conducted at pre-dose and at 1, 2, 3, 5, 9, 24, 36 and 144-hours post-dose for 60–400 mg Cohorts; and at 2, 3, 5, 9, 24, 36, 72 and 144-hours post-dose for the 600 mg and Food Effect Cohort. All adverse events (AEs) were assessed by the investigator for severity and relationship to study medication or study procedures.
All AEs were coded using the Medical Dictionary for Regulatory Activities (MedDRA) version 22.0. All AEs were listed, and the emergence of TEAEs were categorized by body system affected and analyzed to determine whether they were related to treatment. Analysis of TEAEs for VU319 vs. Placebo were completed using Fisher’s Exact Test. Assessment of the grade of toxicity or relation to the study drug for each adverse event was determined by the Investigator. Changes in vital signs, physical examination, and laboratory tests were collected. Changes in vital signs from pre-dose to 48 h post-dose were placed into 10-time bins and assessed using mixed-measures ANOVA with the time bins as the within-subjects factor and dose as the between-subjects factor. To assess changes is QT analyses with respect to VU319 concentration, we calculated the maximal change in QTcF from baseline for each participant. We assessed the relationship between these maximal changes from baseline with the participant’s Cmax using Pearson correlations. Outlier QTcF values (> 450 ms) were also assessed against PK concentrations to examine it there was any relationship using Pearson correlations. Analyses of safety data was completed by SAS version 9.4.

With `Cn1cc2c(-c3cc(F)c(CN4Cc5ncccc5C4=O)c(F)c3)cccc2n1` [VU319] the QTcF (Food effect study, 120 mg Fasted, +2 hour) was 405.0 (22.7), the QTcF (Food effect study, 120 mg Fasted, +3 hour) was 405.9 (19.13) and the QTcF (Food effect study, 120 mg Fasted, +5 hour) was 406.4 (18.05). The QTcF (Food effect study, 120 mg Fasted, +9 hour) was 405.5 (14.4), the QTcF (Food effect study, 120 mg Fasted, +24 hour) was 401.2 (19.21) and the QTcF (Food effect study, 120 mg Fasted, +36 hour) was 405.2 (23.74). For the same compound, the QTcF (Food effect study, 120 mg Fasted, +72 hour) was 403.2 (16.39), the QTcF (Food effect study, 120 mg Fasted, +144 hour) was 405.1 (19.72) and the QTcF (Food effect study, 120 mg Fasted, Baseline) was 408.9 (20.1). For the same compound, the QTcF (Food effect study, 120 mg Fed, +2 hour) was 399.2 (19.09), the QTcF (Food effect study, 120 mg Fed, +3 hour) was 402.3 (24.08) and the QTcF (Food effect study, 120 mg Fed, +5 hour) was 405.0 (16.01). For the same compound, the QTcF (Food effect study, 120 mg Fed, +9 hour) was 402.5 (19.51), the QTcF (Food effect study, 120 mg Fed, +24 hour) was 403.0 (16.89) and the QTcF (Food effect study, 120 mg Fed, +36 hour) was 399.5 (21.91). The QTcF (Food effect study, 120 mg Fed, +72 hour, n = 9, in ms) was 402.7 (17.38)^#, the QTcF (Food effect study, 120 mg Fed, +144 hour) was 403.6 (24.86) and the QTcF (Food effect study, 120 mg Fed, Baseline) was 406.7 (21.7). For the same compound, the “QT intervals, effect of dose” value (SAD study) was “no significant dose-by-time interactions or main effects of dose group”, the QTcF (SAD study, 60 mg, +1 hour) was 411.0 (11.82) and the QTcF (SAD study, 60 mg, +2 hour) was 414.8 (18.13). The QTcF (SAD study, 60 mg, +3 hour) was 412.8 (23.01), the QTcF (SAD study, 60 mg, +5 hour) was 417.2 (19.47) and the QTcF (SAD study, 60 mg, +9 hour) was 411.3 (21.31). For the same compound, the QTcF (SAD study, 60 mg, +24 hour) was 408.7 (8.52), the QTcF (SAD study, 60 mg, +36 hour, n = 5) was 410.6 (10.5)* and the QTcF (SAD study, 60 mg, +144 hour) was 415.5 (7.66). The QTcF (SAD study, 60 mg, Baseline) was 418.0 (17.1), the QTcF (SAD study, 120 mg, +1 hour) was 409.7 (15.34) and the QTcF (SAD study, 120 mg, +2 hour) was 407.0 (21.02). The QTcF (SAD study, 120 mg, +3 hour) was 412.7 (20.02), the QTcF (SAD study, 120 mg, +5 hour) was 406.8 (15.5) and the QTcF (SAD study, 120 mg, +9 hour) was 409.2 (16.68). For the same compound, the QTcF (SAD study, 120 mg, +24 hour) was 408.3 (12.64), the QTcF (SAD study, 120 mg, +36 hour) was 408.0 (18.17) and the QTcF (SAD study, 120 mg, +144 hour) was 406.7 (17.95). The QTcF (SAD study, 120 mg, Baseline) was 406.0 (12.23), the QTcF (SAD study, 240 mg, +1 hour) was 422.7 (22.05) and the QTcF (SAD study, 240 mg, +2 hour) was 415.5 (28.46). For the same compound, the QTcF (SAD study, 240 mg, +3 hour) was 421.7 (19.48), the QTcF (SAD study, 240 mg, +5 hour) was 414.8 (24.28) and the QTcF (SAD study, 240 mg, +9 hour) was 421.0 (15.03). For the same compound, the QTcF (SAD study, 240 mg, +24 hour) was 415.2 (16.22), the QTcF (SAD study, 240 mg, +36 hour) was 418.2 (24.29) and the QTcF (SAD study, 240 mg, +144 hour) was 422.8 (12.32). For the same compound, the QTcF (SAD study, 240 mg, Baseline) was 426.0 (33.22), the QTcF (SAD study, 400 mg, +1 hour) was 405.3 (24.45) and the QTcF (SAD study, 400 mg, +2 hour) was 405.0 (26.62). For the same compound, the QTcF (SAD study, 400 mg, +3 hour) was 405.3 (25.65), the QTcF (SAD study, 400 mg, +5 hour) was 405.2 (27.72) and the QTcF (SAD study, 400 mg, +9 hour) was 400.7 (23.41). The QTcF (SAD study, 400 mg, +24 hour) was 400.7 (17.13), the QTcF (SAD study, 400 mg, +36 hour) was 404.5 (20.16) and the QTcF (SAD study, 400 mg, +144 hour) was 410.5 (10.21). The QTcF (SAD study, 400 mg, Baseline) was 401.8 (24.13), the QTcF (SAD study, 600 mg, +2 hour) was 419.7 (27.65) and the QTcF (SAD study, 600 mg, +3 hour) was 419.5 (31.48). The QTcF (SAD study, 600 mg, +5 hour) was 413.8 (23.37), the QTcF (SAD study, 600 mg, +9 hour) was 413.8 (26.54) and the QTcF (SAD study, 600 mg, +24 hour) was 408.0 (17.38). The QTcF (SAD study, 600 mg, +36 hour) was 418.2 (24.79), the QTcF (SAD study, 600 mg, +72 hour) was 413.3 (19.22) and the QTcF (SAD study, 600 mg, +144 hour) was 415.7 (23.99). For the same compound, the QTcF (SAD study, 600 mg, Baseline) was 416.0 (25.35), the “relationship between change in QTcF from baseline and Cmax” value (SAD study, p > 0.6) was “did not show a significant relationship” and the “relationship between change in QTcF from baseline and Cmax” value (food effect study, Fasted p > 0.4, Fed p > 0.5) was “did not show a significant relationship”.
